Laboratory results taken from PMC10497752, “Heparins are potent inhibitors of ectonucleotide pyrophosphatase/phospho-diesterase-1 (NPP1) – a promising target for the immunotherapy of cancer” (Frontiers in Immunology, 2023).

How the values were obtained:
Format in all cases: biochemical
Settings in all cases: 20 µg/mL (12 µM)
[1] = target: T1, human NPP5 (Homo sapiens, UniProt Q9UJA9); test: NPP5 colorimetric assay, p-Nph-5'-TMP as substrate
T1 sequence (Q9UJA9 25-477): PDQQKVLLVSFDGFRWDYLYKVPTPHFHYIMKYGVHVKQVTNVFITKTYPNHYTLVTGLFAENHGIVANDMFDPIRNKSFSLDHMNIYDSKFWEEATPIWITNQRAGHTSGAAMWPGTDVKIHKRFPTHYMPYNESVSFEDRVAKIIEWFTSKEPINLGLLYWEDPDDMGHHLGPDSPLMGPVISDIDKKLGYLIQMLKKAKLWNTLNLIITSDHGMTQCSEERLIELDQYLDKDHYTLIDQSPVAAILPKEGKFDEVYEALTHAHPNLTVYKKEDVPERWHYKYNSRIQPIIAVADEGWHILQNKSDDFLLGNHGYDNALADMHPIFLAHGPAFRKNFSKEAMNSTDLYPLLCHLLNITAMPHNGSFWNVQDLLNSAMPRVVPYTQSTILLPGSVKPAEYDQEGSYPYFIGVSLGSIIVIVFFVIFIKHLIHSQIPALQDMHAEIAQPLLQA
Description: Compounds 1, 2, 5, 6, and 7 were screened at different concentrations using 400 μM of p-nitrophenyl thymidine monophosphate (p-Nph-5´-TMP) as substrate to study potential inhibition of NPP3 and NPP5 using a colorimetric assay as previously described ([21]). Soluble and purified human NPP3, prepared as previously described ([22]), and human NPP5 ([23]) were diluted in the assay buffer (50 mM TRIS HCl, 2 mM CaCl2, and 0.2 mM ZnCl2, pH 9.00), and 0.09 µg of NPP3, or 0.4 µg of NPP5 were employed. The mixtures were incubated for 30 min at 37°C in case of NPP3, and for 100 min at 37°C in case of NPP5, and the reactions were subsequently terminated by adding 20 μL of 1.0 N aq. NaOH solution. The assay is based on the enzymatic ester hydrolysis of p-Nph-5’-TMP which results in the formation of the yellow p-nitrophenolate anion. The absorption was measured at 400 nm using a BMG PheraStar FS plate reader (BMG Labtech GmbH, Ortenberg, Germany). Each analysis was repeated three times with triplicate measurements.

[2] = target: T2, human NPP4 (Homo sapiens, UniProt Q9Y6X5); test: NPP4 luminescence-based assay, Ap4A as substrate
T2 construct: as a substrate and human soluble NPP4; made in house
T2 sequence (Q9Y6X5 16-407 limits assumed): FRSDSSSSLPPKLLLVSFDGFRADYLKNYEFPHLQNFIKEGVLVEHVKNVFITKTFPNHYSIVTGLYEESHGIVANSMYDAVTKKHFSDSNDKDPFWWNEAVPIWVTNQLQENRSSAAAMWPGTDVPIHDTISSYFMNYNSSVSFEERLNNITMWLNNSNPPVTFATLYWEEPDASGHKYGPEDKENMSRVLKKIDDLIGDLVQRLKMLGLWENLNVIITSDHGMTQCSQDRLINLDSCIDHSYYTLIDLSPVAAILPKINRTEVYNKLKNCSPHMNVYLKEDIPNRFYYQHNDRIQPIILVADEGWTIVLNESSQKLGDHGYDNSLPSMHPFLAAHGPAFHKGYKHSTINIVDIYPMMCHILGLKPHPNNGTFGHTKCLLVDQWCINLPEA
Description: Selectivity studies on NPP4 were performed using a published luminescence-based assay versus 20 μM of diadenosine tetraphosphate (Ap4A) as a substrate and human soluble NPP4 ([24]). The assay buffer consisted of 10 mM HEPES, 1 mM MgCl2, and 2 mM CaCl2 (pH 8.00). The enzyme reaction was started by adding 0.14 μg of purified human NPP4 to the reaction mixture, which was incubated at 37°C for 90 min. The released product ATP was quantified using the luciferin-luciferase reaction. The firefly luciferase reacts with D-luciferin in the presence of the formed ATP and Mg^2+. The resulting luminescence is a measure of the enzymatic activity, and the luminescence was read at 560 nm using a microplate reader (BMG PheraStar). Three independent experiments were performed, each in duplicate measurements; positive and negative controls were included.

[3] = target: T3, human NTPDase3 (Homo sapiens, UniProt O75355); test: NTPDase CE-based assay, NTPDase3
T3 construct: made in house; host or cells: COS-7 cells
T3 sequence (O75355 1-529): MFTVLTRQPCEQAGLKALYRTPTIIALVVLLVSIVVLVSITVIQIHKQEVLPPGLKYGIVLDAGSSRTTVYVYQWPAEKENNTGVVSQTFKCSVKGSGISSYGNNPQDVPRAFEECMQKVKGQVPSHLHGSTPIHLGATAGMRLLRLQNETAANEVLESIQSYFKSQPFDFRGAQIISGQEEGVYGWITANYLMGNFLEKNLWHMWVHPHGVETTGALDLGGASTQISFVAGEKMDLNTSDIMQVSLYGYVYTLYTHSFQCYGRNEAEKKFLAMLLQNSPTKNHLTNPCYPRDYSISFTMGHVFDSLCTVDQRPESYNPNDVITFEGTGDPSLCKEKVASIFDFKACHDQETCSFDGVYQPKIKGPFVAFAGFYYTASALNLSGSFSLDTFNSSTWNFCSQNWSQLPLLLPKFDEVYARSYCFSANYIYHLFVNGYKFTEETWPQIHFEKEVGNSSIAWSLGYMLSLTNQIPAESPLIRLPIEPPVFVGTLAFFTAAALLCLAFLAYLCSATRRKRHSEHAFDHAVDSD
Description: For monitoring the activity of human NTPDases (subtypes 1, 2, 3 and 8) in the presence of test compounds, a CE-based assay system was used, according to a published procedure ([11], [25]). The following concentrations of test compounds were investigated in initial screening studies: 63 IU/mL of compounds 1 and 2, 30 µM of compound 6. For selectivity studies, the following concentration were employed: 50 IU/mL of 1, 12 µM of 6, and 48 µM of 7. The amount of enzyme was selected according to previously performed enzymatic titration, and adjusted to ensure a 10–20% conversion rate. Enzymes were obtained by transfection of COS-7 cells using plasmids encoding human NTPDase1 (GenBank accession number U87967) ([26]), NTPDase2 (NM_203468) ([27]), a kind gift of Dr. A.F. Knowles (San Diego, CA), NTPDase3 (AF034840) ([28]), a kind gift of Dr. T.L. Kirley (Cincinnati, OH) and human NTPDase8 (AY430414) ([29]) and purified as previously described ([30], [31]). The reaction buffer consisted of 10 mM HEPES, 2 mM CaCl2, and 1 mM MgCl2, pH 7.4. In the CE assay, the selected substrate concentration (ATP) was 100 µM for all studied human NTPDases (-1, -2, -3 and -8). […] The released products were separated by CE and quantified by their UV-absorption at 260 nm with ADP and AMP as external standards, as previously described ([11]); positive and negative controls were included.

CO[C@H]1O[C@H](COS(=O)(=O)O)[C@@H](O[C@@H]2O[C@@H](C(=O)O)[C@@H](O[C@H]3O[C@H](COS(=O)(=O)O)[C@@H](O[C@@H]4O[C@H](C(=O)O)[C@@H](O[C@H]5O[C@H](COS(=O)(=O)O)[C@@H](O)[C@H](O)[C@H]5NS(=O)(=O)O)[C@H](O)[C@H]4O)[C@H](OS(=O)(=O)O)[C@H]3NS(=O)(=O)O)[C@H](O)[C@H]2OS(=O)(=O)O)[C@H](O)[C@H]1NS(=O)(=O)O [Compound 6, Fondaparinux]
no effect: NPP5 inhibition, selectivity study [1] | NPP4 inhibition, selectivity study [2] | NTPDase3 inhibition, selectivity study [3]
